Patent publication US6566401B2, “N-acetylcysteine compositions and methods for the treatment and prevention of drug toxicity” (The Board of Trustees of the Leland Stanford Junior …, priority 2001, dated 2003)

Columns and labels:
[1] = NAC treatment of subjects taking AZT: hematologic toxicity; assay type: in vivo, human; conditions: HIV disease
Text: Results have shown that acetaminophen usage, which lowers glutathione levels exacerbates AZT toxicity. Richman, et al. (1987) N. Eng. J. Med. 317: 192-97. De Rosa et al. recently have shown that treatment with NAC which increases glutathione levels decreases the toxicity. De Rosa et al., submitted to JAMA for publication.
It appears that NAC provides cysteine needed to redress the excessive sulfur loss that occurs in HIV disease and specifically to replenish intracellular glutathione. […] This decreases the AZT-mediated inhibition of erythroid development, helps to improve the overall metabolism and stability of erythrocytes and their progenitors (for example, by enabling optimal functioning of the glucose-6-phosphate dehydrogenase and other energy-supplying pathways). In addition, it improves the cell's ability to withstand the production of oxidants induced by the introduction of drugs (such as AZT) and the internal production of molecules (such as TNF and HIV-TAT) that trigger intracellular oxidant production.

[2] = cited from earlier work
[3] = effects counter to those reported for NAC; cited from earlier work

| SMILES | effect of NAC treatment on AZT's hematologic toxicity [1] | half-cell potential for the NAC thiol/disulfide pair [2] | bioactive dose relative to NAC (fold less than NAC) [3] |
| --- | --- | --- | --- |
| CC(=O)N[C@@H](CS)C(=O)O [NAC, N-acetylcysteine] | decreases AZT's hematologic toxicity | about +63 mV | – |
| CC(=O)N[C@@H](CSSC[C@H](NC(C)=O)C(=O)O)C(=O)O [oxidized form of NAC, di-n-acetylcysteine] | – | – | 10-100 fold |
